Literature values in patent US20200069758A1, “COMPOSITION FOR USE IN THE PREVENTIVE AND/OR CURATIVE TREATMENT OF NON-ALCOHOLIC FATTY LIVER DISEASE” (NORMAPHAR SA, priority 2018, published 2020).

Details: background art statement; for complications / mortality on administration: long-term or high-dose administration

Molecule: CN(C)C(=N)N=C(N)N [metformin]
- reduction of non-alcoholic fatty liver disease (simple fatty liver disease, NASH): failed to significantly reduce

Molecule: CCc1ccc(CCOc2ccc(CC3SC(=O)NC3=O)cc2)nc1 (stereo not shown) [pioglitazone]
- complications / mortality on administration: heart failure, osteoporosis and weight gain

Molecule: Vitamin E
- reduction of non-alcoholic fatty liver disease (simple fatty liver disease, NASH): reductions were observed in the inflammation and non-alcoholic fatty liver disease
- complications / mortality on administration: increases all-cause mortality
